In publication PMC12133982, “Predominant T-cell epitopes of SARS-CoV-2 restricted by multiple prevalent HLA-B and HLA-C allotypes in Northeast Asia” (Frontiers in Immunology, 2025) one finds IC50 data, which are given here for 6 compounds.

In one test the target is HLA-B5801 (Homo sapiens, UniProt P01889, A329T/C349S/D201E/D98Y/E176V/E187L/E204Q/E69T/G107R/I218V/I90N/K202T/L105A/L119I/N104I/N87E/Q89R/Q94S/R106L/R155S/R180L/R86G/S101N/S121R/S35A/S48A/T118I/V127L/V306I/V36M/Y140S/Y91M). Put plainly: Competitive peptide binding assay, CIR-B5801. Conditions: HMy2.CIR-B5801 cells, reference Cy5-[…], class from inhibition at 5 and 15 μM, flow cytometry MFI; read-out: Binding affinity with HLA-B5801. On the procedure:
(§1) Then, competitive peptide binding assays were performed.

The target in another test is HLA-B1502 (Homo sapiens, UniProt P01889, A329T/A93T/A95T/C349S/D201E/D98Y/E187L/E204Q/E69M/E70A/H137Y/K202T/L119I/Q94N/R155S/R180L/S121R/S35A/S48A/T118I/V306I/V36M/Y140S/Y91S). Kind of test: Competitive peptide binding assay, CIR-B1502. Conditions: HMy2.CIR-B1502 cells, reference Cy5-[…], class from inhibition at 5 and 15 μM, flow cytometry MFI; read-out: Binding affinity with HLA-B1502. Here is the method:
as §1

Another test has as its target HLA-B1301 (Homo sapiens, UniProt P01889, A65T/A93T/A95T/D138N/D201E/D98Y/E176V/E204Q/E69M/E70A/G107R/K202T/L105A/L119I/N104T/N87E/Q94N/R106L/R155S/R169L/R180L/S101N/S121R/S35A/S48T/T118I/V127L/V36M/Y140L/Y91S). Put plainly: Competitive peptide binding assay, CIR-B1301. Conditions: HMy2.CIR-B1301 cells, reference Cy5-[…], class from inhibition at 5 and 15 μM, flow cytometry MFI; read-out: Binding affinity with HLA-B1301. Here is the method: as §1

The target of the next test is HLA-B1302 (Homo sapiens, UniProt P01889, A65T/A93T/A95T/D138N/D201E/D98Y/E176V/E204Q/E69M/E70A/G107R/K202T/L105A/L119W/N104T/N87E/Q94N/R106L/R155S/R169L/R180L/S101N/S121T/S35A/S48T/V127L/V36M/Y140L/Y91S). Put plainly: Competitive peptide binding assay, CIR-B1302. Conditions: HMy2.CIR-B1302 cells, reference Cy5-MMWYWGPSL, class from inhibition at 5 and 15 μM, flow cytometry MFI; read-out: Binding affinity with HLA-B1302. Here is the method:
as §1

For a further test, the target named is HLA-B1501 (Homo sapiens, UniProt P01889, A329T/A93T/A95T/C349S/D201E/D98Y/E187L/E204Q/E69M/E70A/K202T/N87E/Q94N/R155S/R180W/S121R/S35A/S48A/V306I/V36M/Y140S/Y91S). Kind of test: Competitive peptide binding assay, CIR-B1501. Conditions: HMy2.CIR-B1501 cells, reference Cy5-[…], class from inhibition at 5 and 15 μM, flow cytometry MFI; read-out: Binding affinity with HLA-B1501. Here is the method:
as §1

In the next test the target is HLA-B3501 (Homo sapiens, UniProt P01889, A329T/A93T/A95T/C349S/D201E/D98Y/E176V/E187L/E204Q/E69T/I218V/K202T/L119I/Q94N/R155S/R180L/S121R/S35A/S48A/T118I/V127L/V306I/V36M/Y140S/Y91F). Put plainly: Competitive peptide binding assay, CIR-B3501. Conditions: HMy2.CIR-B3501 cells, reference Cy5-[…], class from inhibition at 5 and 15 μM, flow cytometry MFI; read-out: Binding affinity with HLA-B3501. Here is the method:
as §1

The target in another test is HLA-B4801 (Homo sapiens, UniProt P01889, A269T/A93T/A95T/D138N/D98Y/E176V/N87E/Q94N/R180L/T167S/W171L/Y91S). Put plainly: Competitive peptide binding assay, CIR-B4801. Conditions: HMy2.CIR-B4801 cells, reference Cy5-[…], class from inhibition at 5 and 15 μM, flow cytometry MFI; read-out: Binding affinity with HLA-B4801. Here is the method:
as §1

Another test has as its target HLA-C0102 (Homo sapiens, UniProt P10321, A176E/A330V/A35S/A97T/C350S/D114A/D33F/L171W/L180R/L218V/M285V/M309V/M331V/P208H/Q277E/Q291P/R121W/R243W/R30K/S123C/S140Y/S297R/T329A/T363A/V272M/V319A). Put plainly: Competitive peptide binding assay, CIR-C0102. Conditions: HMy2.CIR-C0102 cells, reference Cy5-[…], class from inhibition at 5 and 15 μM, flow cytometry MFI; read-out: Binding affinity with HLA-C0102. On the procedure:
as §1

The target in the next test is HLA-C0401 (Homo sapiens, UniProt P10321, A176E/A330V/A35S/A73E/C25G/C350S/D138N/D33S/E299K/L171W/L180R/L218V/M285V/M309V/M331V/N104K/P208H/Q277E/Q291P/R243W/R38W/S101N/S123F/S140F/S297R/S48A/T329A/T363A/V319A/V327M). Put plainly: Competitive peptide binding assay, CIR-C0401. Conditions: HMy2.CIR-C0401 cells, reference Cy5-[…], class from inhibition at 5 and 15 μM, flow cytometry MFI; read-out: Binding affinity with HLA-C0401. Here is the method:
as §1

A further test addresses HLA-C0701 (Homo sapiens, UniProt P10321, K90N/S123Y). Put plainly: Competitive peptide binding assay, CIR-C0701. Conditions: HMy2.CIR-C0701 cells, reference Cy5-[…], class from inhibition at 5 and 15 μM, flow cytometry MFI; read-out: Binding affinity with HLA-C 0701. On the procedure:
as §1

For a further test, the target named is HLA-C0602 (Homo sapiens, UniProt P10321, A176E/A330V/C350S/L171W/L180W/L218V/M285V/M309V/M331V/N104K/P208H/Q277E/Q291P/R121W/S101N/S123Y/S297R/T329A/T363A/V319A/V328M). Kind of test: Competitive peptide binding assay, CIR-C0602.
The target in another test is HLA-C0702 (Homo sapiens, UniProt P10321). Put plainly: Competitive peptide binding assay, CIR-C0702.
The next test deals with HLA-B4001 (Homo sapiens, UniProt P01889, A65T/A93T/A95T/D138N/D98Y/E176V/E69K/N87E/Q56L/Q94N/R180L/S121R/S35A/S48T/T167S/V36M/W171L/Y33H/Y91S). Put plainly: Competitive peptide binding assay, CIR-B4001. Conditions: HMy2.CIR-B4001 cells, reference Cy5-[…], class from inhibition at 5 and 15 μM, flow cytometry MFI; read-out: Binding affinity with HLA-B4001. On the procedure:
as §1

The target in a further test is HLA-C0801 (Homo sapiens, UniProt P10321, A176T/A330V/A97T/C350S/D114A/D138N/D33Y/E201K/E299G/L171W/L218V/M285V/M309V/M331V/P208H/Q277E/Q291P/R59Q/S123Y/S140F/S297R/S48A/T329A/T363A/V319A/V328M). Kind of test: Competitive peptide binding assay, CIR-C0801. Conditions: HMy2.CIR-C0801 cells, reference Cy5-[…], class from inhibition at 5 and 15 μM, flow cytometry MFI; read-out: Binding affinity with HLA-C0801. Here is the method:
as §1

Another test addresses HLA-C0302 (Homo sapiens, UniProt P10321, A176E/A330V/A97T/C25G/C350S/D114A/D33Y/E197K/L127V/L171W/L218V/M285V/M309V/M331V/P208H/Q277E/Q291P/R243W/R45H/S123Y/S297R/S48A/T118I/T187L/T329A/T363A/V319A). Put plainly: Competitive peptide binding assay, CIR-C0302. Conditions: HMy2.CIR-C0302 cells, reference Cy5-[…], class from inhibition at 5 and 15 μM, flow cytometry MFI; read-out: Binding affinity with HLA-C0302. Here is the method:
as §1

The next test addresses HLA-B4601 (Homo sapiens, UniProt P01889, A329T/A93R/C349S/D201E/E100V/E187L/E204Q/E69M/E70A/I90K/K202T/N87E/R155S/R180W/S121R/S35A/S48A/V306I/V36M/Y140S). Put plainly: Competitive peptide binding assay, CIR-B4601. Conditions: HMy2.CIR-B4601 cells, reference Cy5-[…], class from inhibition at 5 and 15 μM, flow cytometry MFI; read-out: Binding affinity with HLA-B4601. Here is the method:
as §1

A further test addresses HLA-B5101 (Homo sapiens, UniProt P01889, A329T/A93T/A95T/C349S/D138N/D201E/D98Y/E187L/E204Q/E69T/G107R/I218V/K202T/L105A/L119W/N104I/Q94N/R106L/R155S/R180L/S101N/S121T/S35A/S48A/V306I/V36M/Y195H/Y91F). Put plainly: Competitive peptide binding assay, CIR-B5101. Conditions: HMy2.CIR-B5101 cells, reference Cy5-[…], class from inhibition at 5 and 15 μM, flow cytometry MFI; read-out: Binding affinity with HLA-B5101. Here is the method:
as §1

Peptide text beside a SMILES is read from it.

With `CC[C@H](C)[C@H](NC(=O)[C@H](C)NC(=O)[C@H](C)NC(=O)[C@H](CC(N)=O)NC(=O)CNC(=O)[C@H](CC(=O)O)NC(=O)[C@H](CCC(N)=O)NC(=O)[C@H](C)NC(=O)[C@@H](N)Cc1ccccc1)C(=O)O` [Epitope Y246] (H-FAQDGNAAI-OH; N-terminus and C-terminus assumed), the IC50 on HLA-B5801, on HLA-B1502, on HLA-B1301, on HLA-B1302, at HLA-B1501 and at HLA-B3501 was more than 15 µM in each case. In addition, the IC50 at HLA-B4801 is more than 15 µM.

With `C[C@H](NC(=O)[C@H](Cc1ccc(O)cc1)NC(=O)[C@H](C)NC(=O)[C@@H](N)Cc1ccccc1)C(=O)N[C@@H](CC(N)=O)C(=O)N[C@@H](CCCNC(=N)N)C(=O)N[C@@H](CC(N)=O)C(=O)N[C@@H](CCCNC(=N)N)C(=O)N[C@@H](Cc1ccccc1)C(=O)O` [Epitope M43] (H-FAYANRNRF-OH; N-terminus and C-terminus assumed), the IC50 is more than 15 µM at HLA-C0102; more than 15 µM on HLA-C0401; less than 5 µM on HLA-C0701; 5 to 15 µM on HLA-C0602; 5 to 15 µM on HLA-C0702.

For `CC(C)C[C@H](NC(=O)[C@H](CCC(=O)O)NC(=O)[C@H](CCCCN)NC(=O)[C@H](Cc1ccccc1)NC(=O)[C@H](CO)NC(=O)[C@@H](N)CC(C)C)C(=O)N[C@@H](CC(C)C)C(=O)N[C@H](C(=O)N[C@@H](Cc1ccc(O)cc1)C(=O)O)C(C)C` [Epitope Y142] (H-LSFKELLVY-OH; N-terminus and C-terminus assumed), the IC50 on HLA-B4001 was more than 15 µM; on HLA-B5801 it was less than 5 µM; at HLA-B1502, more than 15 µM; on HLA-B1501, 5 to 15 µM; at HLA-B3501, more than 15 µM; at HLA-B4801, more than 15 µM.

Take `C[C@H](NC(=O)[C@H](CO)NC(=O)[C@@H](N)CCCCN)C(=O)NCC(=O)N[C@@H](Cc1ccccc1)C(=O)N1CCC[C@H]1C(=O)N[C@@H](Cc1ccccc1)C(=O)N[C@@H](CC(N)=O)C(=O)N[C@@H](CCCCN)C(=O)N[C@@H](Cc1c[nH]c2ccccc12)C(=O)O` [Epitope Y306] (H-KSAGFPFNKW-OH; N-terminus and C-terminus assumed): the IC50 on HLA-B4001 was more than 15 µM; at HLA-B1302 it was less than 5 µM; on HLA-B1501 it was more than 15 µM; on HLA-B4801, more than 15 µM.

`CSCC[C@H](NC(=O)[C@H](CO)NC(=O)[C@H](CCCNC(=N)N)NC(=O)[C@@H](NC(=O)[C@H](CCCNC(=N)N)NC(=O)[C@H](C)NC(=O)[C@@H](N)Cc1ccccc1)[C@@H](C)O)C(=O)N[C@@H](Cc1c[nH]c2ccccc12)C(=O)N[C@@H](CO)C(=O)N[C@@H](Cc1ccccc1)C(=O)O` [Epitope M71] (H-FARTRSMWSF-OH; N-terminus and C-terminus assumed): the IC50 at HLA-C0801 was more than 15 µM; at HLA-C0302, less than 5 µM; at HLA-C0401 it was more than 15 µM; on HLA-C0701, 5 to 15 µM; on HLA-C0602, more than 15 µM; at HLA-C0702, 5 to 15 µM.

For `CC(C)C[C@H](NC(=O)[C@H](CC(=O)O)NC(=O)[C@@H](NC(=O)[C@H](CC(=O)O)NC(=O)[C@@H](NC(=O)[C@H](Cc1c[nH]cn1)NC(=O)[C@H](CO)NC(=O)[C@H](CCC(=O)O)NC(=O)[C@H](C)N)C(C)C)[C@@H](C)O)C(=O)O` [Epitope Y198] (H-AESHVDTDL-OH; N-terminus and C-terminus assumed), the IC50 is more than 15 µM at HLA-B4601; more than 15 µM at HLA-B5801; more than 15 µM at HLA-B1502; more than 15 µM at HLA-B5101; 5 to 15 µM at HLA-B1302; more than 15 µM at HLA-B1501. Besides, the IC50 on HLA-B3501 and on HLA-B4801 was more than 15 µM in each case.
